± gives the standard deviation of the averaged measurements.
Columns and labels:
Details in all cases: 72 h
Caco-2 [1] = experiment: cell viability relative to DMSO; higher = less toxic
Calu-3 [2] = experiment: as above
HepG2 [3] = experiment: as above
U2OS [4] = experiment: as above
Vero E6 [5] = experiment: as above
Caco-2 [6] = experiment: relative viability EC50 (midpoint between 100% and the lowest measured viability); higher = less toxic
Calu-3 [7] = experiment: as above
HepG2 [8] = experiment: as above
U2OS [9] = experiment: as above
Vero E6 [10] = experiment: as above
Caco-2 [11] = experiment: drug sensitivity score (DSS) for viability; higher = more toxic; extreme values may be limits of the assay
Calu-3 [12] = experiment: as above
HepG2 [13] = experiment: as above
U2OS [14] = experiment: as above
Vero E6 [15] = experiment: as above

Compound	cell viability (Caco-2 [1]; 1 nM)	cell viability (Caco-2 [1]; 10 nM)	cell viability (Caco-2 [1]; 100 nM)	cell viability (Caco-2 [1]; 1000 nM)	cell viability (Caco-2 [1]; 10000 nM)	cell viability (Calu-3 [2]; 1 nM)	cell viability (Calu-3 [2]; 10 nM)	cell viability (Calu-3 [2]; 100 nM)	cell viability (Calu-3 [2]; 1000 nM)	cell viability (Calu-3 [2]; 10000 nM)	cell viability (HepG2 [3]; 1 nM)	cell viability (HepG2 [3]; 10 nM)	cell viability (HepG2 [3]; 100 nM)	cell viability (HepG2 [3]; 1000 nM)	cell viability (HepG2 [3]; 10000 nM)	cell viability (U2OS [4]; 1 nM)	cell viability (U2OS [4]; 10 nM)	cell viability (U2OS [4]; 100 nM)	cell viability (U2OS [4]; 1000 nM)	cell viability (U2OS [4]; 10000 nM)	cell viability (Vero E6 [5]; 1 nM)	cell viability (Vero E6 [5]; 10 nM)	cell viability (Vero E6 [5]; 100 nM)	cell viability (Vero E6 [5]; 1000 nM)	cell viability (Vero E6 [5]; 10000 nM)	relative viability EC50 (Caco-2 [6])	relative viability EC50 (Calu-3 [7])	relative viability EC50 (HepG2 [8])	relative viability EC50 (U2OS [9])	relative viability EC50 (Vero E6 [10])	drug sensitivity score (Caco-2 [11])	drug sensitivity score (Calu-3 [12])	drug sensitivity score (HepG2 [13])	drug sensitivity score (U2OS [14])	drug sensitivity score (Vero E6 [15])
Nc1c(S(=O)(=O)O)cc(Nc2cccc3ccccc23)c2c1C(=O)c1ccccc1C2=O	91.3%	97.8%	101%	89.7%	90.1%	101%	95.8%	91.5%	101%	93.2%	103%	91.1%	91.1%	90%	86.8%	94.1%	98.4%	95.3%	95.4%	81.8%	94.2%	98.3%	97.3%	93.7%	86.7%	> 10 µM	> 10 µM	> 10 µM	> 10 µM	> 10 µM	0.1	0	1	0.8	0
O=C(Nc1ccccc1)Nc1ccc(-c2ccc(C(=O)[C@@H]3CCC[C@@H]3C(=O)O)cc2)cc1	99.05 ± 0.78%	95.8 ± 1.6%	94.35 ± 0.35%	97 ± 13%	85.6 ± 0.28%	111 ± 3%	103.8 ± 0.85%	97.2 ± 1.4%	98.2 ± 5.6%	108 ± 1.9%	105.2 ± 0.49%	96.4 ± 1.4%	95.5 ± 10%	92.2 ± 7%	97.1 ± 7.3%	98.5 ± 1.5%	98.6 ± 5.8%	100 ± 1.3%	101 ± 2%	94.2 ± 2.1%	101 ± 3.9%	98.7 ± 1.1%	98.45 ± 0.35%	94.3 ± 2.8%	95.1 ± 0.57%	> 10 µM	> 10 µM	> 10 µM	> 10 µM	> 10 µM	0.4 ± 0.42	0	0.35 ± 0.49	0	0
O=C(O)CCc1ccc(NCc2cccc3c2CCCN3CCOc2ccccc2)cc1F	106%	96.2%	101%	106%	96.4%	93.2%	97.4%	91.6%	94.8%	99.6%	97.9%	101%	100%	100%	95%	101%	96.5%	99%	97.4%	104%	97.5%	98.2%	97.4%	98.6%	96%	> 10 µM	> 10 µM	> 10 µM	> 10 µM	> 10 µM	0	0	0	0	0

Reference: the supplement of paper PMC13380429
